Assay results from publication PMC13313556, “Development and characterization of triazole-based WDR5 inhibitors for the treatment of glioblastoma” (JCI Insight, 2026).
Like-named read-outs stand apart in the source and are kept apart here.

Columns and labels:
[1] = Microsomal intrinsic clearance, human; format: in vitro ADME; conditions: for CLint scaled at 1 µM: pooled liver microsomes, human microsomes; for Pred CLhep (h): scaled predicted hepatic clearance, human
Procedure: (§1) SUPPLEMENTAL DMPK METHODS
(§2) All in vitro DMPK screening assays were performed at Q2 Solutions, Inc. (Indianapolis,
(§3) IN, USA). Microsomal Intrinsic Clearance: Test compounds (1 µM) were incubated
(§4) with 1 mg/mL of pooled liver microsomes in phosphate buffer at 37 °C. Samples were
(§5) taken at 0, 5, 10, 15, 30 and 45 min and analyzed by LC-MS. Testosterone was used as
(§6) the positive control. Two replicates were obtained and average CLint values are reported. […]

3832 CSCs = experiment: 7-day CTG viability assay (GI50, cross-titrations, irradiation) in 3832; format: cell-based, human
Procedure: (§7) For GI50 determination, compounds were stamped in technical triplicate, while for synergy cross-titrations dose-response matrices were prepared in technical duplicate. Different CSC lines, grown in suspension as spheroids, were split with Accutase and seeded directly on top of the prestamped compounds (50 μL of NBMc and 700 cells/well). The outer 4 rows (A,B and O,P row IDs) and 4 columns (1,2 and 23,24 column IDs) were filled with 80 μL of PBS to minimize evaporation. Cells were incubated with compounds for 7 days at 37°C/5% CO2 prior to the addition of 25 μL/well Cell-Titer Glo (Promega) and luminescence quantification on a Revvity EnVision plate reader. […] For the cross-titrations of 2 compounds, synergy scores were calculated using the MuSyC webserver ([79]). […]
(§8) antagonist (p53 activator) RG7112 following either 0 Gy or 2 Gy irradiation. Mean values are presented from a single biological replicate conducted in technical triplicate. Follow- […]
(§9) Cell viability was quantified as described in the Materials and Methods four days post-irradiation (seven days total). The

L0 CSCs = experiment: 7-day CTG viability assay (GI50, cross-titrations) in L0; format: cell-based; conditions: Homo sapiens; L0, 7-day CTG; pGI50 = −log10[GI50(M)]
Procedure: For GI50 determination, compounds were stamped in technical triplicate, while for synergy cross-titrations dose-response matrices were prepared in technical duplicate. Different CSC lines, grown in suspension as spheroids, were split with Accutase and seeded directly on top of the prestamped compounds (50 μL of NBMc and 700 cells/well). The outer 4 rows (A,B and O,P row IDs) and 4 columns (1,2 and 23,24 column IDs) were filled with 80 μL of PBS to minimize evaporation. Cells were incubated with compounds for 7 days at 37°C/5% CO2 prior to the addition of 25 μL/well Cell-Titer Glo (Promega) and luminescence quantification on a Revvity EnVision plate reader. […] For the cross-titrations of 2 compounds, synergy scores were calculated using the MuSyC webserver ([79]).

[2] = Plasma protein binding (equilibrium dialysis), human; format: in vitro ADME
Procedure: Plasma Protein and Brain Homogenate Binding: Plasma protein binding assays in human and rat plasma were performed using equilibrium dialysis method and a fast gradient elution LC-MS/MS to estimate the percent of compound which binds to protein over a 4.5 hour incubation period at 37 °C, while undergoing orbital shaking. Assay was performed using a HT dialysis micro equilibrium device using dialysis membrane strips. A time 0 sample was taken after protein matrix is created and samples were taken from […]
both the protein side and buffer side of the membrane after incubation and the parent compound was quantified. Brain homogenate binding was performed similarly as above using human brain homogenate, equilibrium dialysis, and LC-MS/MS methods. Fraction unbound is calculated by dividing the concentration of the buffer side by the concentration of the matrix side (plasma or brain). […]

[3] = Microsomal intrinsic clearance, rat; format: in vitro ADME; conditions: for CLint scaled at 1 µM: pooled liver microsomes, rat microsomes; for Pred CLhep (r): scaled predicted hepatic clearance, rat
Procedure: as §1, §2, §3, §4, §5, §6

L1 CSCs = experiment: 7-day CTG viability assay (GI50, cross-titrations, irradiation) in L1; format: cell-based, human; conditions: for GI50: Homo sapiens; for log(GI50): L1 + RAD (2 Gy)
Procedure: as §7, §8, §9

DI318 CSCs = experiment: 7-day CTG viability assay (GI50, cross-titrations, irradiation) in DI318; format: cell-based; conditions: Homo sapiens
Procedure: as §7, §8, §9

WDR5 = WDR5 (Homo sapiens, UniProt P61964); experiment: WDR5 TR-FRET binding assay (displacement of labeled WIN-site peptide); set-up: human WDR5 residues Ser22-Cys334 were codon optimized for E. coli; made in house; host or cells: E. coli T7 Express lysY/Iq (New England Biolabs), pET27 plasmid
Procedure: Recombinant human WDR5 was cloned, expressed, and purified as previously described ([37]). Briefly, human WDR5 residues Ser22-Cys334 were codon optimized for E. coli and cloned into a pET27 plasmid downstream of a SUMO-protease cleavable NT-His6-SUMO fusion. […] Induced cultures were pelleted; resuspended in 1X PBS pH 7.4, 300 mM NaCl, 20 mM imidazole, 5 mM β-Me, and 10% glycerol; and lysed via sonication. […] His-SUMO-WDR5 used in the TR-FRET assay was further purified via size exclusion chromatography using 1X PBS pH 7.4, 300 mM NaCl, 5 mM β-Me running buffer, concentrated to 1–2 mg/mL, aliquoted, and froze at –80°C for storage. Tag free WDR5 used for crystallography was dialyzed overnight with SUMO protease and passed over an NiNTA column to remove the His6-SUMO tag. Tag free WDR5 was further purified via size exclusion chromatography using 20 mM HEPES pH 7.0, 250 mM NaCl, and 5 mM DTT; concentrated to 10 mg/mL; aliquoted; and frozen at –80°C for storage.
Inhibitor Ki values were measured using a previously published competitive TR-FRET assay ([37]). […] The reported Ki values were calculated from at least 3 biological replicates completed in technical quadruplicate.

[4] = Homo sapiens, 3832, 0 Gy, read-out: log(GI50) (converted)
[5] = human plasma, read-out: PPB % fu (h)
[6] = L1, 0 Gy, read-out: log(GI50) (converted)
[7] = L1, 7-day CTG, pGI50 = −log10[GI50(M)], read-out: pGI50 (converted)
[8] = DI318 + RAD (2 Gy), read-out: log(GI50) (converted)
[9] = […], DI318, 7-day CTG, pGI50 = −log10[GI50(M)], read-out: pGI50 (converted)
[10] = Homo sapiens, 3832 + RAD (2 Gy), read-out: log(GI50) (converted)
[11] = Homo sapiens, […], 3832, 7-day CTG, pGI50 = −log10[GI50(M)], read-out: pGI50 (converted)
[12] = summary of Table 1, read-out: free fraction

| SMILES | CLint scaled at 1 µM [1] [mL/min/kg] | Pred CLhep (h) [1] [mL/min/kg] | log(GI50) (3832 CSCs; 3832 + RAD (2 Gy)) [M] | GI50 (3832 CSCs; [4]) [M] | GI50 (3832 CSCs; Homo sapiens, 3832, 7-day CTG, pGI50 = −log10[GI50(M)], read-out: pGI50 (converted)) [M] | GI50 (L0 CSCs) [M] | fraction unbound at […] [2, 5] | fraction unbound at […] ([2]; summary of Table 1, read-out: plasma protein binding) | CLint scaled at 1 µM [3] [mL/min/kg] | Pred CLhep (r) [3] [mL/min/kg] | GI50 (L1 CSCs; [6]) [M] | GI50 (L1 CSCs; [7]) [M] | log(GI50) (L1 CSCs) [M] | GI50 (DI318 CSCs; [8]) [M] | GI50 (DI318 CSCs; DI318, 0 Gy, read-out: log(GI50) (converted)) [M] | GI50 (DI318 CSCs; [9]) [M] | Ki (WDR5) [nM] | GI50 (3832 CSCs; [10]) [M] | GI50 (3832 CSCs; [11]) [M] | fraction unbound at […] [2, 12] |
| --- | --- | --- | --- | --- | --- | --- | --- | --- | --- | --- | --- | --- | --- | --- | --- | --- | --- | --- | --- | --- |
| COc1cc(CN2CCc3c(cc(Cn4ccn(C)c4=N)cc3-c3ccc(F)cc3C)C2=O)cc(OC)c1 [C16, reference compound] | 155 | 18.3 | -6.0 | 1e-06 | 8.32e-07 | 5.01e-07 | 0.003 | < 0.01 | < 9.2 | < 14.7 | 1.26e-05 | 1.26e-05 | -4.9 | 7.94e-07 | 2e-06 | 1.58e-06 | 0.03 ± 0.01 | – | – | – |
| COc1cc(Cn2nnc3c2CCc2c-3cc(Cn3ccnc3C)cc2C2CC2)ccc1F [C3TD343] | 710 | 20.3 | – | 3.16e-06 | – | 5.5e-06 | 0.007 | – | 378 | 64.1 | 7.94e-06 | 8.32e-06 | -5.1 | 6.31e-06 | – | 5.01e-06 | 5.9 ± 0.3 | 3.16e-06 | 2.51e-06 | ~0.02 |
| COc1cc(Cn2nnc3c2CCc2c(-c4cn(C)nc4C(F)(F)F)cc(Cn4ccnc4C)cc2-3)cc(OC)c1 [C3TD078] | 1200 | 20.6 | – | – | – | 1.26e-06 | 0.016 | – | 316 | 63.1 | 5.01e-06 | 5.01e-06 | -5.3 | 6.31e-07 | – | 2e-06 | 0.03 ± 0.002 | 1.26e-06 | 2e-06 | ~0.02 |
